The record followed here is ChEMBL document CHEMBL1138313, “Cyclization of the acyl glucuronide metabolite of a neutral endopeptidase inhibitor to an electrophilic glutarimide: synthesis, reactivity, and mechanistic analysis” (J Med Chem, 2007).

Type in all cases: ADME, organism-based
One data set has as its system Rattus norvegicus. Briefly: Biodistribution in Wistar rat bile at 15 umol/kg, iv. As to conditions: in vivo.
The nature of data set [1]: Biodistribution in Wistar rat bile at 50 umol/kg, iv after 1 hr. As to conditions: read-out: Drug uptake.
Data set [2] can be described thus: Biodistribution in Wistar rat bile at 50 umol/kg, iv after 5 hrs. As to conditions: read-out: Drug uptake.
Data set [3] in a line: Biodistribution in Wistar rat bile assessed as drug elimination at 15 umol/kg, iv after 1 hr. As to conditions: read-out: Drug uptake.
A short description of data set [4]: Biodistribution in Wistar rat bile assessed as drug elimination at 15 umol/kg, iv after 5 hrs. The note with it: read-out: Drug uptake.
Data set [5] can be described thus: Biodistribution in Wistar rat urine at 15 umol/kg, iv after 5 hrs. As to conditions: read-out: Drug uptake.
The next data set deals with Plasma. Briefly: Biodistribution in Wistar rat plasma per mL at 15 umol/kg, iv after 5 hrs. As to conditions: in vivo.

The compound `CCC[C@@H]1CC2(CCCC2)C(=O)N(c2nnc(CC)s2)C1=O` gave a Drug uptake with Rattus norvegicus of 6%. In data set [1], the dose excreted at 1 h stood at 4.5%. In addition, the dose excreted at 5 h in data set [2] was determined as 11%.

As to `CCC[C@H](CC1(C(=O)Nc2nn[14c](CC)s2)CCCC1)C(=O)O`, the dose excreted at 1 h in data set [3] is 28.7%. The dose excreted at 5 h in data set [4] is 75.1%; in data set [5], 4.9%. In the data set on Plasma, this compound registered a Drug uptake of 0.3 %ID.
